Measured values as given in patent publication US12268727B2, “Bioactive polypeptides for improvements in plant protection, growth and productivity” (priority 2017, dated 2025).
Where “and” joins values, the source holds several entries; their conditions need not be identical. Equal entries are not always repeated. Where two headings read alike, the source gives them in different places.

Columns and labels:
peppers (Capsicum) = test: Foliar application to pepper, yield; format: in vivo, pepper (Capsicum); settings: for Avg. Percent Change Yield Total Weight (lbs/Ac) (Hungarian Hot Wax) 2 Replicate Trials / Avg. Percent Change Yield Total Weight (lbs/Ac) Red Knight 2 Replicate Trials / Combined Avg. Percent Change Yield Total Number (lbs/Ac) RK and HHW: foliar at first flower; for increase in average fruit weight per plant vs surfactant only: Jalapeno, pre-bloom; for combined yield average increase, RK and HHW varieties: first flower
Procedure: Foliar treatments of Bt.4Q7 Flg22 and Ec.Flg22 bioactive priming polypeptides were applied using small scale plots designed to simulate commercial growing conditions for peppers (Capsicum). Two varieties of pepper: Red Knight (RK) and Hungarian Hot Wax (HHW) were grown from 6-week old transplants in raised beds covered with black plastic mulch that had good water-holding characteristics and a pH of 5.8-6.6. Plants were grown using drip irrigation and fertilizer applied following grower guidelines throughout the growing season to ensure optimum plant growth and yields. Small raised bed plots were designed to simulate the planting densities used by commercial growers that generally plant approximately 10,000-14,000 plants per acre in double rows 14-18 inches (35.6 to 46 cm) apart on plastic mulched beds with 16-24 inches (40.6 to 61 cm) between plants in the row and with the beds spaced 5.0-6.5 feet ([…]) apart from their centers. A single row of peppers also can be planted on each bed (5,000-6,500 plants per acre or 12,355-16,062 plants per hectare).
Effects of the foliar applications on pepper yield were determined for two separate harvests using a once over harvest approach and normalized to the yield of the control plants. The average percentage change in yield for each treatment over the yield for the control plants is reported as pounds/acre (lbs/Ac) in Table 29.
Foliar treatment of Gm.RHPP (SEQ ID NO: 600) was applied as an exogenous spray at the first-bloom stage to increase yield in two pepper varieties. Foliar treatment of Gm.RHPP was applied using small scale plots designed to simulate commercial growing conditions for peppers (Capsicum) as described in Example 13. Foliar applications with the Gm.RHPP bioactive priming polypeptide were applied at the first flower stage, on two varieties of pepper, Red Knight (RK) and Hungarian Hot Wax (HHW). […] Effects of the foliar applications on pepper yield were determined for two separate harvests using a once over harvest approach and normalized to the yield of the control plants. The average percentage change in yield over the yield for the control plants is reported in Table 42, as the percent change per total weight (lbs/Ac) of peppers harvested. Average percent change in yield is reported for the 2 replicate harvests (trials) for the RK and HHW pepper varieties and then as a combined average for both varieties.
Small-scale plots were designed to simulate commercial growing conditions for jalapeno peppers. Peppers were grown for 12-weeks in a controlled growth room and then transplanted outside in 2 raised beds covered with black plastic mulch that had good water-holding characteristics and in soil having a pH of 5.8-6.6. Jalapeno pepper plants were spaced 14-16 inches (38 cm) apart with 16-24 inches (50 cm) between plants containing approximately 25 plants per row bed. Plants were grown using drip irrigation and fertilizer applied following grower guidelines throughout the growing season to provide optimum conditions for plant growth. The raised bed plots were designed to simulate the planting densities used by commercial growers that generally plant approximately plants per acre (5,000-6,500 plants per acre or 12,355-16,062 plants per hectare) in double rows 35.6-45.7 cm apart with the beds spaced 5.0-6.5 feet (1.52-1.98 meters) apart from their centers (Orzolek et al., “Agricultural Alternatives: Pepper Production.” University Park: Penn State Extension, 2010).

squash = test: Foliar application to squash, yield; format: in vivo; settings: Crookneck squash; Bt.4Q7Flg22 2.0 Fl. oz/Ac, Gm.RHPP 3.2 Fl. oz/Ac
Description: Formulation 2 (F2) consists of the D RI Bt.4Q7 Flg22 applied with 0.01% (wv) non-ionic surfactant. […] Yield comparisons were made between the plants treated with the foliar Bt.4Q7Flg22 F1 and F2 spray applications compared to the control (water) or non-treated squash plants. Squash plants were cultivated in sandy loam soil as follows. 2.5 cm holes were cut in 2.5 ft. (0.76 m) wide plastic covered mounds, two rows per mound, holes spaced 1.5 ft (0.46 m) apart within each row. Rows were staggered within the mound. Mounds were spaced 4 ft (1.2 m) apart. Three squash seeds were planted per hole and thinned to a single plant per hole 14 days after planting. Drip irrigation tubing was laid in the center of each mound, and plants were watered as necessary.
Squash plants were grown from seed in raised beds until bloom, and foliar treated in the same Florida (FL) location using two replicated trials or two separate harvests. Yield for the foliar Bt.4Q7Flg22 applied F1 and F2 treated plants is reported as the number of squash per plant, the weight (grams) per squash and the total squash yield (lbs/Ac) and represented as a percentage change as compared to non-treated control plants (Table 31).
Yield comparisons were made between the plants treated with the polypeptides compared to surfactant only control plants, with three replicates per treatment. […] Replicates with average yield per plant 50% above or 50% below the median yield for the trial were excluded as outliers.
Squash plants were cultivated in sandy loam soil as follows. 2.5 cm holes were cut in 0.76 meters wide plastic covered mounds, two rows per mound, holes spaced 0.46 meters apart within each row. Rows were staggered within the mound. Mounds were spaced 1.2 meters apart. Three squash seeds were planted per hole and thinned to a single plant per hole 14 days after planting. Drip irrigation tubing was laid in the center of each mound, and plants were watered as necessary.

soybean = test: Foliar application to soybean, field yield trials; format: in vivo; settings: for Average Bu/Ac Increase compared to Control Variety 1 and 2 / Average Total Yield Bu/Ac Variety 1 and 2 / Average Total Yield Bu/Ac Variety 2: foliar at R2, 7 US Midwest locations; for Average Total Yield Bu/Ac Variety 2: AG3536
corn = format: in vivo; settings: for Average Change in Yield (Bu/Ac) compared to Surfactant control / Average Yield Bu/Ac: foliar at V5, 2 IL locations with drought-like conditions, 16.7 μM; for yield advantage: third study, 10-11 sites
Phakopsora pachyrhizi = test: Asian soybean rust severity and defoliation, field trials in Paraguay; format: in vivo; settings: for defoliation: Yatytay site
[1] = combined average of two corn hybrids, two years
[2] = foliar 0.33 Fl. oz/Ac, V5-V8, first year trials, 10 locations
[3] = foliar 0.33 Fl. oz/Ac, V8 corn Dekalb 5064, second year trials

Bt.4Q7Flg22: Flg22 polypeptide (22 amino acids) from flagellin of Bacillus thuringiensis strain 4Q7 (DRLSSGKRINSASDDAAGLAIA; listed as Bacillus thuringiensis)
Avg. Percent Change Yield Total Weight (lbs/Ac) (Hungarian Hot Wax) 2 Replicate Trials (peppers (Capsicum); 1 Fl. oz/Ac): +77% | Avg. Percent Change Yield Total Weight (lbs/Ac) Red Knight 2 Replicate Trials (peppers (Capsicum); 1 Fl. oz/Ac): +29% | Combined Avg. Percent Change Yield Total Number (lbs/Ac) RK and HHW (peppers (Capsicum); 1 Fl. oz/Ac): +53% | Avg. Percent Change Yield Total Weight (lbs/Ac) (Hungarian Hot Wax) 2 Replicate Trials (peppers (Capsicum); 20 Fl. oz/Ac): +42% | Avg. Percent Change Yield Total Weight (lbs/Ac) Red Knight 2 Replicate Trials (peppers (Capsicum); 20 Fl. oz/Ac): +8% | Combined Avg. Percent Change Yield Total Number (lbs/Ac) RK and HHW (peppers (Capsicum); 20 Fl. oz/Ac): +25% | increase in average fruit weight per plant vs surfactant only (peppers (Capsicum); 4 Fl. oz/Ac): 40% | increase in average fruit weight per plant vs surfactant only (peppers (Capsicum); Bt.4Q7Flg22 2 Fl. oz/Ac, Gm.RHPP 3.2 Fl. oz/Ac): 49% | combined yield average increase, RK and HHW varieties (peppers (Capsicum); high rate 20 Fl. oz/Ac): 25% | combined yield average increase, RK and HHW varieties (peppers (Capsicum); low rate 1 Fl. oz/Ac): 53% | yield increase over control, HHW variety (peppers (Capsicum); high rate 20 Fl. oz/Ac): 42% | yield increase over control, HHW variety (peppers (Capsicum); low rate 1 Fl. oz/Ac): 77% and 72% | change in fruit weight vs surfactant only control (squash): 4.4% | increase in weight of harvested squash fruit per plant (squash): 31.7 grams | win rate (soybean; R2 foliar 0.33 Fl. oz/Ac, 11 locations): 64% | yield advantage (soybean; R2 foliar, 8 Fl. oz/Ac, 11 sites): 0.88 Bu/Ac | average yield change vs non-treated control (soybean; R2 foliar, 11 locations, Flg22 polypeptides 0.33 Fl. oz/Ac, RHPP 4 Fl. oz/Ac): −0.1 Bu/Ac | Average Bu/Ac Increase compared to Control Variety 1 and 2 (soybean; use rate 0.33 Fl. oz/Ac): +0.45 Bu/Ac | Average Total Yield Bu/Ac Variety 1 and 2 (soybean; use rate 0.33 Fl. oz/Ac): 61.02 Bu/Ac | Average Bu/Ac Increase compared to Control Variety 1 and 2 (soybean; use rate 4.0 Fl. oz/Ac): +0.33 Bu/Ac | Average Total Yield Bu/Ac Variety 1 and 2 (soybean; use rate 4.0 Fl. oz/Ac): 60.90 Bu/Ac | Average Bu/Ac Increase compared to Control Variety 1 and 2 (soybean; use rate 8.0 Fl. oz/Ac): +0.88 Bu/Ac | Average Total Yield Bu/Ac Variety 1 and 2 (soybean; use rate 8.0 Fl. oz/Ac): 61.45 Bu/Ac | Average Total Yield Bu/Ac Variety 2 (soybean; use rate 0.33 Fl. oz/Ac): 61.61 Bu/Ac | Average Total Yield Bu/Ac Variety 2 (soybean; use rate 4.0 Fl. oz/Ac): 64.19 Bu/Ac | Average Total Yield Bu/Ac Variety 2 (soybean; use rate 8.0 Fl. oz/Ac): 63.86 Bu/Ac | average yield change vs STRATEGO YLD fungicide alone (corn; V5 corn, 2 hybrids, 2 locations Iowa, applied with STRATEGO YLD 4.0 Fl. oz/Ac): 5.50 Bu/Ac | increase in yield vs base seed treatment + surfactant control (corn; V5 corn, 3 DEKALB hybrids, 6-8 locations, 4.0 Fl. oz/Ac): 1.14 Bu/Ac | yield increase over non-treated control (corn; V8 corn Dekalb 5064, 6 locations, Bt.4Q7Flg22 0.33 Fl. oz/Ac, STRATEGO YLD 4.0 Fl. oz/Ac): 4.84 Bu/Ac | 2-year average yield increase (corn; [1]): 8.0 Bu/Ac | win rate, multiple year (corn; [1]): 86% | yield increase over surfactant control (corn; drought-like conditions, 2 hybrids, 2 IL locations, 16.7 μM at 4.0 Fl. oz/Ac, cellobiose 320 mM where combined): 3.70 Bu/Ac | yield increase over control (corn; drought-like conditions, V5-V7, highest use rate): ~27 Bu/Ac | average yield increase vs non-treated control (corn; [2]): 11.60 Bu/Ac and > 11 Bu/Ac | win rate (corn; [2]): 90% | average yield increase over control (corn; [3]): 4.8 Bu/Ac and ~5 Bu/Ac | win rate (corn; [3]): 83% | Average Change in Yield (Bu/Ac) compared to Surfactant control (corn; 2 hybrids, 4.0 Fl. oz/Ac): +3.70 Bu/Ac | Average Yield Bu/Ac (corn; 2 hybrids, 4.0 Fl. oz/Ac): 96.46 Bu/Ac | Average Change in Yield (Bu/Ac) compared to Surfactant control (corn; 2 hybrids, 48.0 Fl. oz/Ac): +26.61 Bu/Ac | Average Yield Bu/Ac (corn; 2 hybrids, 48.0 Fl. oz/Ac): 119.37 Bu/Ac | Average Total Yield Bu/Ac (6 locations) (corn; foliar at V8, corn hybrid Dekalb 5064, Bt.4Q7Flg22 0.33 Fl. oz/Ac, STRATEGO YLD 4.0 Fl. oz/Ac): 192.21 Bu/Ac | Average Bu/Ac Increase compared to Control (corn; foliar at V8, corn hybrid Dekalb 5064, Bt.4Q7Flg22 0.33 Fl. oz/Ac, STRATEGO YLD 4.0 Fl. oz/Ac, 6 locations): +4.84 Bu/Ac | yield advantage (corn; V5-V8, 0.33 Fl. oz/Ac (25 nM)): 5.75 Bu/Ac | yield advantage (corn; V5-V8, 4 Fl. oz/Ac (300 nM)): 3.77 Bu/Ac | yield advantage (corn; V5-V8, 8 Fl. oz/Ac (600 nM)): 5.05 Bu/Ac | defoliation (Phakopsora pachyrhizi; R7, 150 mL/Ha): 70% | defoliation (Phakopsora pachyrhizi; R7, 300 mL/Ha): 60% | less Asian soybean rust leaf area damage than untreated control (Phakopsora pachyrhizi; two foliar applications from R1, 150 and 300 mL/Ha): 12.4-13.0%
